Measurements taken from PMC10974828, “Identification of Novel Flavonoids and Ansa-Macrolides with Activities against Leishmania donovani through Natural Product Library Screening” (Pathogens, 2024).
Several values for one entry are separate records, joined by “and”; a condition that tells them apart may be missing. Equal entries are not always repeated. Where two headings read alike, the source gives them in different places.

Key:
[1] = test system: L. donovani promastigotes; test: L. donovani promastigote viability assay (resazurin); type: cell-based; settings: Leishmania donovani; 72 h exposure, resazurin readout, two independent experiments; read-out: L. donovani Promastigote Inhibition IC50
Procedure: The inhibition of L. donovani promastigote growth was assessed by measuring the conversion of resazurin to resorufin. The promastigotes were dispensed at a density of 5 × 10^4 L. donovani promastigotes per well into 384-well plates and exposed to the natural product library composed of 2562 molecules at 10 μM for 72 h. Following the incubation, resazurin sodium salt was added, and the plates were further incubated for 5 h before fixation using 4% paraformaldehyde. The results were then analyzed using a Victor3™ plate reader (PerkinElmer, Shelton, CT, USA) at an emission wavelength of 590 nm and an excitation wavelength of 530 nm. Amphotericin B and miltefosine served as reference drugs for inhibiting the growth of L. donovani promastigotes. The hits identified from the screening were confirmed by testing in a 10-point, 1/2 dilution manner starting from 400, 200, 100, or 50 μM (depending on the solubility and activity) in duplicates of two independent experiments to calculate the IC50 values.
(§1) All of the IC50 and the half-maximal cytotoxic concentration (CC50) values were calculated using two independent experiments. Outliers were excluded, and the dose–response curves were fitted using the GraphPad Prism V6.0 software (GraphPad Software, San Diego, CA, USA) by using a sigmoidal dose–response equation with a variable hill slope option.

[2] = test system: L. donovani intracellular amastigotes; test: Intracellular L. donovani amastigote assay in THP-1 cells (image-based); type: cell-based, Leishmania donovani; settings: for IC50: Leishmania donovani, amastigotes in PMA-treated THP-1 cells, 72 h, read-out: Intracellular L. donovani Inhibition IC50; for Selectivity Index (SI): THP-1 CC50 / amastigotes IC50
Procedure: (§2) PMA-treated THP-1 cells were seeded at 0.8 × 10^4 cells per well in a 384-well plate in RPMI-1640 complete medium supplemented with 10% FBS. After 48 h of incubation at 37 °C in the presence of 5% CO2, the L. donovani amastigotes, isolated from infected hamster liver, were added to the cell culture at a ratio of 10:1. The infected THP-1 cells were treated with screening compounds (the same set used in the promastigotes HTS) at 10 µM, with amphotericin B and miltefosine serving as positive controls and 0.5% DMSO as a negative control. After 72 h, the cells and parasites were washed, stained, and fixed with 5 µM DAPI and 4% PFA. Images were acquired through Operetta® CLS™ (PerkinElmer, Shelton, CT, USA), and the numbers of parasites, host cells, and infection ratios were quantified using the Columbus™ software (https://www.perkinelmer.com/product/image-data-storage-and-analysis-system-columbus, accessed on 7 February 2024) (PerkinElmer, Shelton, CT, USA). The hits identified from the screening were confirmed by testing in a 10-point, 1/2 dilution manner starting from 400, 200, 100, or 50 μM in duplicates of two independent experiments to calculate the IC50 values.
as §1

[3] = test system: THP-1 cells; test: Host cell cytotoxicity in the intracellular Leishmania assay (THP-1 cell ratio); type: cell-based, Human; settings: host THP-1 cells in the intracellular assay, 72 h
Procedure: as §2, §1

[4] = test system: eukaryotic RNA polymerase; design: method as in PMID 32342856; settings: higher constant indicates lower affinity; cited from earlier work
[5] = test system: L. infantum; design: method as in PMID 32441133; settings: read-out: IC50 against L. infantum; cited from earlier work
[6] = test system: intracellular amastigotes; design: method as in PMID 37091674; settings: read-out: IC50 against intracellular amastigotes; cited from earlier work
[7] = test system: hepatic parasites; design: method as in PMID 37091674; settings: murine model of visceral leishmaniasis; cited from earlier work
[8] = test system: L. donovani amastigotes; design: method as in PMID 28498323; settings: read-out: IC50 against L. donovani amastigotes; cited from earlier work
[9] = test system: Trypanosoma brucei; design: method as in PMID 28498323; settings: read-out: IC50 against Trypanosoma brucei; cited from earlier work
[10] = test system: T. cruzi; design: method as in PMID 28498323; settings: read-out: IC50 against T. cruzi; cited from earlier work
[11] = test system: L. donovani amastigotes; design: method as in PMID 30319238; settings: read-out: IC50 against L. donovani amastigotes; cited from earlier work
[12] = test system: T. brucei; design: method as in PMID 30319238; settings: read-out: IC50 against T. brucei; cited from earlier work

| Compound | IC50 [1] [µM] | IC50 [2] [µM] | Selectivity Index (SI) [2] | THP-1 Cell Ratio CC50 [3] | further results |
| --- | --- | --- | --- | --- | --- |
| COC1C=COC2(C)Oc3c(C)c(OC(=O)c4ccccc4)c4c(c3C2=O)C(=O)C(N2CC(C)OC(C)C2)=C(NC(=O)C(C)=CC=CC(C)C(O)C(C)C(O)C(C)C(OC(C)=O)C1C)C4=O (centres unmarked) [BMD-NP-02084] | 2.53 ± 0.14 | 2.12 ± 0.4 | 5.9 | 12.45 ± 1.02 µM |  |
| COc1cc(C=C2Oc3c(ccc4c3C(c3ccnn3C(C)C)CC(=O)O4)C2=O)cc(OC)c1OC (centres unmarked) [BMD-NP-01586] | 36.3 ± 0.42 | 2.97 ± 0.33 | 12.4 | 36.90 ± 1.13 µM |  |
| CO[C@H]1/C=C/O[C@@]2(C)Oc3c(C)c(O)c4c(O)c(cc(O)c4c3C2=O)NC(=O)/C(C)=C\C=C\[C@H](C)[C@H](O)[C@@H](C)[C@@H](O)[C@@H](C)[C@H](OC(C)=O)[C@@H]1C [Rifamycin] |  |  |  |  | binding constant for eukaryotic RNA polymerase relative to prokaryotic RNA polymerase [4]: 100 times |
| O=C1C[C@H](c2cccnc2)c2c(cc(O)c3c(=O)c(-c4ccc(Cl)cc4)coc23)O1 [BMD-NP-01559] | 19.08 ± 0.13 | 2.37 ± 0.49 | >21.1 | > 50.00 µM |  |
| OC1C=C2CCN3Cc4cc5c(cc4C(C1O)C23)OCO5 (centres unmarked) [BMD-NP-00820] | 3.99 ± 0.4 | 1.74 ± 0.27 | >28.7 | >50.00 µM |  |
| COc1ccc(CCOc2cc([C@@H]3CC(=O)Oc4cc(O)c5c(=O)cc(-c6ccc(O)c(O)c6)oc5c43)ccc2OC)cc1 [BMD-NP-02255] | 45.9 ± 1.09 | 4.9 ± 0.65 |  | >50.00 µM |  |
| COc1ccc(NC2=C3NC(=O)C(C)=CC=CC(C)C(O)C(C)C(O)C(C)C(OC(C)=O)C(C)C(OC)C=COC4(C)Oc5c(C)c(OC(=O)c6ccc(C)cc6)c(c(c5C4=O)C2=O)C3=O)cc1 (centres unmarked) [BMD-NP-02085] | 1.76 ± 0.28 | 1.76 ± 0.85 | 7.5 and 7.4 | 13.07 µM and 13.07 ± 0.56 µM |  |
| O[C@H]1[C@H]2c3cc4c(cc3CN3CCC(=C[C@@H]1O)[C@H]23)OCO4 [BMD-NP-01077, Lycorine] | 6.99 ± 0.74 | 2.63 ± 0.57 | >19.0 | >50.00 µM |  |
| CCCC1CC(=O)Oc2c(C(=O)C(C)C(C)O)c(O)c3c(c21)OC(C)(C)C=C3 (centres unmarked) [Calanolide E2] |  |  |  |  | IC50 [5]: 29.1 µM |
| COc1cc([C@@H]2CC(=O)Oc3ccc4c(=O)c(-c5ccccc5)coc4c32)ccc1O [BMD-NP-01555] | 12.9 ± 0.28 | 2.2 ± 0.29 |  | >50.00 µM |  |
| CC(C)C1CC(=O)Oc2cc(O)c3c(=O)cc(-c4ccc(O)c(O)c4)oc3c21 (centres unmarked) [BMD-NP-01550] | 23.5 ± 0.52 | 3.44 ± 0.64 | 6.1 | 20.84 ± 1.04 µM |  |
| O=c1cc(-c2ccc(O)cc2)oc2cc(O)cc(O)c12 [apigenin, 4′,5,7-trihydroxyflavone] |  |  |  |  | IC50 [6]: 2.3 µM; reduction in hepatic parasites [7]: 99.7% |
| CCCCOc1ccc(C(=O)Oc2c(C)c3c4c5c2C(=O)C(=C(N2CCCCC2)C5=O)NC(=O)C(C)=CC=CC(C)C(O)C(C)C(O)C(C)C(OC(C)=O)C(C)C(OC)C=COC(C)(O3)C4=O)cc1 (centres unmarked) [BMD-NP-02070] | 29.9 ± 1.27 | 3.34 ± 0.42 | >15.0 |  |  |
| CCCCCCC/C=C/C=C/C(=O)NCCc1ccc(O)cc1 [dodeca-2E,4E-dienoic acid 4-hydroxy-2-phenylethylamide] |  |  |  |  | IC50 [8]: 13.3 µM; IC50 [9]: 7.17 µM; IC50 [10]: 5.97 µM |
| methyl-ent-3β-hydroxylabd-8(17)-en-15-oate |  |  |  |  | IC50 [11]: 7.82 µM; IC50 [12]: 3.84 µM |
| COc1ccc([C@H]2CC(=O)Oc3ccc4c(c32)O/C(=C\c2cc(OC)c(OC)cc2OC)C4=O)cc1O [BMD-NP-01562] | 9.88 ± 0.71 | 5.1 ± 0.34 | >9.8 | >50.00 µM |  |
